Patent publication US7064120B2, “Tricyclic pyridyl carboxamides and derivatives thereof tocolytic oxytocin receptor antagonists” (Wyeth, priority 2001, dated 2006)

Molecular target: T1, human oxytocin receptor (Homo sapiens, UniProt P30559)
T1 construct: host or cells: CHO cells, stably transfected (pcDNA3.1 vector)
T1 sequence (P30559 1-389): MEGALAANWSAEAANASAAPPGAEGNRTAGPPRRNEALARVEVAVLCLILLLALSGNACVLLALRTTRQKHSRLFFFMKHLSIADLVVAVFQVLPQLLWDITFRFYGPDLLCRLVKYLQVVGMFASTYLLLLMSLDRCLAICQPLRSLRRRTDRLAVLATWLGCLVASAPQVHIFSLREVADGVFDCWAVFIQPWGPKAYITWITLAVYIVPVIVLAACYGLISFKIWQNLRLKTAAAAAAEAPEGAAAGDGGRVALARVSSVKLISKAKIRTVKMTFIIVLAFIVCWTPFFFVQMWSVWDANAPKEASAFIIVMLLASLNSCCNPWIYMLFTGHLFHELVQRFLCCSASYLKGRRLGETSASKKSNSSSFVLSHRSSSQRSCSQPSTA
Assay: Oxytocin binding in CHO cell membranes expressing human oxytocin receptors ([3H]oxytocin radioligand binding)
Conditions: 100 nM, read-out: OT % inhibition @ 100 nM
In short: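 Values are % inhibition at one concentration or nM IC50 from [3H]oxytocin displacement. Membranes from human oxytocin receptor CHO cells, 25–50 μg protein/well, 60 min at room temperature, pH 7.4 Tris buffer with protease inhibitors; bound label by filtration and scintillation counting.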

Question: How did the inhibition at 0.1 µM turn out when `COc1ccccc1-c1ccc(C(=O)N2Cc3ccc(C(=O)N(C)CCc4ccncc4)n3Cc3ccccc32)cc1OC` [Example 125, 10-[(2,2′-Dimethoxy-[1,1′-biphenyl]-4-yl)carbonyl]-N-methyl-N-[2-(4-pyridinyl)ethyl]-10,11-dihydro-5H-pyrrolo[2,1-c][1,4]benzodiazepine-3-carboxamide] was run?
Answer: Its inhibition at 0.1 µM is 94%.

Question: With `COc1ccccc1-c1ccc(C(=O)N2Cc3ccc(C(=O)N(C)CCc4ccncc4)n3Cc3ccccc32)cc1C` [Example 126, 10-[(2′-Methoxy-2-methyl-[1,1′-biphenyl]-4-yl)carbonyl]-N-methyl-N-[2-(4-pyridinyl)ethyl]-10,11-dihydro-5H-pyrrolo[2,1-c][1,4]benzodiazepine-3-carboxamide] as the molecule, how does the inhibition at 0.1 µM read?
Answer: The inhibition at 0.1 µM was 93%.

Question: For `Cc1ccccc1-c1ccc(C(=O)N2Cc3ccc(C(=O)N(C)CCc4ccncc4)n3Cc3ccccc32)cc1C` [Example 127, 10-[(2,2′-Dimethyl-[1,1′-biphenyl]-4-yl)carbonyl]-N-methyl-N-[2-(4-pyridinyl)ethyl]-10,11-dihydro-5H-pyrrolo[2,1-c][1,4]benzodiazepine-3-carboxamide], which inhibition at 0.1 µM is on record?
Answer: The inhibition at 0.1 µM was 102%.

Question: With `COc1cccc(-c2ccc(C(=O)N3Cc4ccc(C(=O)N(C)CCc5ccncc5)n4Cc4ccccc43)cc2C)c1` [Example 128, 10-[(3′-Methoxy-2-methyl-[1,1′-biphenyl]-4-yl)carbonyl]-N-methyl-N-[2-(4-pyridinyl)ethyl]-10,11-dihydro-5H-pyrrolo[2,1-c][1,4]benzodiazepine-3-carboxamide] as the molecule, how does the inhibition at 0.1 µM read?
Answer: Its inhibition at 0.1 µM is 88%.

Question: Which inhibition at 0.1 µM does the source give for `COc1ccccc1-c1ccc(C(=O)N2Cc3ccc(C(=O)N(C)CCc4ccncc4)n3Cc3ccccc32)cc1` [Example 129, 10-[(2′-Methoxy-[1,1′-biphenyl]-4-yl)carbonyl]-N-methyl-N-[2-(4-pyridinyl)ethyl]-10,11-dihydro-5H-pyrrolo[2,1-c][1,4]benzodiazepine-3-carboxamide] here?
Answer: The inhibition at 0.1 µM was 98%.

Question: How did the inhibition at 0.1 µM turn out when `Cc1ccccc1-c1ccc(C(=O)N2Cc3ccc(C(=O)N(C)CCc4ccncc4)n3Cc3ccccc32)cc1` [Example 130, N-Methyl-10-[(2′-methyl-[1,1′-biphenyl]-4-yl)carbonyl]-N-[2-(4-pyridinyl)ethyl]-10,11-dihydro-5H-pyrrolo[2,1-c][1,4]benzodiazepine-3-carboxamide] was run?
Answer: The inhibition at 0.1 µM was 0%.

Question: For `COc1cc(C(=O)N2Cc3ccc(C(=O)N(C)CCc4ccncc4)n3Cc3ccccc32)ccc1-c1ccccc1C` [Example 131, 10-[(2-Methoxy-2′-methyl-[1,1′-biphenyl]-4-yl)carbonyl]-N-methyl-N-[2-(4-pyridinyl)ethyl]-10,11-dihydro-5H-pyrrolo[2,1-c][1,4]benzodiazepine-3-carboxamide], which inhibition at 0.1 µM is on record?
Answer: The inhibition at 0.1 µM was 99%.

Question: For `COc1cc(-c2ccccc2C)c(Cl)cc1C(=O)N1Cc2ccc(C(=O)N(C)CCc3ccncc3)n2Cc2ccccc21` [Example 132, 10-[(6-Chloro-3-methoxy-2′-methyl-[1,1′-biphenyl]-4-yl)carbonyl]-N-methyl-N-[2-(4-pyridinyl)ethyl]-10,11-dihydro-5H-pyrrolo[2,1-c][1,4]benzodiazepine-3-carboxamide], which inhibition at 0.1 µM is on record?
Answer: Its inhibition at 0.1 µM is 99%.

Question: How did the inhibition at 0.1 µM turn out when `COc1cccc(-c2cc(OC)c(C(=O)N3Cc4ccc(C(=O)N(C)CCc5ccncc5)n4Cc4ccccc43)cc2Cl)c1` [Example 133, 10-[(6-Chloro-3,3′-dimethoxy-[1,1′-biphenyl]-4-yl)carbonyl]-N-methyl-N-[2-(4-pyridinyl)ethyl]-10,11-dihydro-5H-pyrrolo[2,1-c][1,4]benzodiazepine-3-carboxamide] was run?
Answer: The inhibition at 0.1 µM was 87%.

Question: `COc1cc(C(=O)N2Cc3ccc(C(=O)N(C)CCc4ccncc4)n3Cc3ccccc32)ccc1-c1cccc2ccccc12` [Example 134, 10-[3-Methoxy-4-(naphthalen-1-yl)benzoyl]-N-methyl-N-[2-(4-pyridinyl)ethyl]-10,11-dihydro-5H-pyrrolo[2,1-c][1,4]benzodiazepine-3-carboxamide] was tested. Which inhibition at 0.1 µM did it give?
Answer: Its inhibition at 0.1 µM is 88%.

Question: With `COc1cccc(-c2ccc(C(=O)N3Cc4ccc(C(=O)N(C)CCc5ccncc5)n4Cc4ccccc43)cc2OC)c1` [Example 135, 10-[(2,3′-Dimethoxy-[1,1′-biphenyl]-4-yl)carbonyl]-N-methyl-N-[2-(4-pyridinyl)ethyl]-10,11-dihydro-5H-pyrrolo[2,1-c][1,4]benzodiazepine-3-carboxamide] as the molecule, how does the inhibition at 0.1 µM read?
Answer: The inhibition at 0.1 µM was 96%.

Question: For `CN(CCc1ccncc1)C(=O)c1ccc2n1Cc1ccccc1N(C(=O)c1ccc(-c3cccc4ccccc34)cc1Cl)C2` [Example 136, 10-[2-Chloro-4-(naphthalen-1-yl)benzoyl]-N-methyl-N-[2-(4-pyridinyl)ethyl]-10,11-dihydro-5H-pyrrolo[2,1-c][1,4]benzodiazepine-3-carboxamide], which inhibition at 0.1 µM is on record?
Answer: Its inhibition at 0.1 µM is 44%.

Question: Which inhibition at 0.1 µM does the source give for `Cc1cc(C(=O)N2Cc3ccc(C(=O)N(C)CCc4ccncc4)n3Cc3ccccc32)ccc1-c1ccccc1C(F)(F)F` [Example 137, N-Methyl-10-{[2-methyl-2′-trifluoromethyl-[1,1′-biphenyl]-4-yl]carbonyl}-N-[2-(4-pyridinyl)ethyl]-10,11-dihydro-5H-pyrrolo[2,1-c][1,4]benzodiazepine-3-carboxamide] here?
Answer: Its inhibition at 0.1 µM is 95%.

Question: `COc1ccccc1-c1ccc(C(=O)N2Cc3ccc(C(=O)N4CCCCC4c4cccnc4)n3Cc3ccccc32)cc1C` (stereo not shown) [Example 138, {10-[(2′-Methoxy-2-methyl-[1,1′-biphenyl]-4-yl)carbonyl]-10,11-dihydro-5H-pyrrolo[2,1-c][1,4]benzodiazepin-3-yl}[2-(3-pyridinyl)-1-piperidinyl]methanone] was tested. Which inhibition at 0.1 µM did it give?
Answer: The inhibition at 0.1 µM was 97%.

Question: `COc1ccccc1-c1ccc(C(=O)N2Cc3ccc(C(=O)N4CCCCC4c4cccnc4)n3Cc3ccccc32)cc1` (stereo not shown) [Example 139, {10-[(2′-Methoxy-[1,1′-biphenyl]-4-yl)carbonyl]-10,11-dihydro-5H-pyrrolo[2,1-c][1,4]benzodiazepin-3-yl}[2-(3-pyridinyl)-1-piperidinyl]methanone] was tested. Which inhibition at 0.1 µM did it give?
Answer: Its inhibition at 0.1 µM is 96%.

Question: Which inhibition at 0.1 µM does the source give for `COc1cc(-c2ccccc2C)c(Cl)cc1C(=O)N1Cc2ccc(C(=O)N3CCCCC3c3cccnc3)n2Cc2ccccc21` (stereo not shown) [Example 140, {10-[(6-Chloro-3-methoxy-2′-methyl-[1,1′-biphenyl]-4-yl)carbonyl]-10,11-dihydro-5H-pyrrolo[2,1-c][1,4]benzodiazepin-3-yl}[2-(3-pyridinyl)-1-piperidinyl]methanone] here?
Answer: The inhibition at 0.1 µM was 95%.

Question: For `COc1ccccc1-c1ccc(C(=O)N2Cc3ccc(C(=O)N4CCCCC4c4cccnc4)n3Cc3ccccc32)cc1OC` (stereo not shown) [Example 141, {10-[(2,2′-Dimethoxy-[1,1′-biphenyl]-4-yl)carbonyl]-10,11-dihydro-5H-pyrrolo[2,1-c][1,4]benzodiazepin-3-yl}[2-(3-pyridinyl)-1-piperidinyl]methanone], which inhibition at 0.1 µM is on record?
Answer: Its inhibition at 0.1 µM is 96%.

Question: Which inhibition at 0.1 µM does the source give for `Cc1cc(C(=O)N2Cc3ccc(C(=O)N4CCCCC4c4cccnc4)n3Cc3ccccc32)ccc1-c1ccccc1C(F)(F)F` (stereo not shown) [Example 142, (10-{[2-Methyl-2′-trifluoromethyl-[1,1′-biphenyl]-4-yl]carbonyl}-10,11-dihydro-5H-pyrrolo[2,1-c][1,4]benzodiazepin-3-yl)[2-(3-pyridinyl)-1-piperidinyl]methanone] here?
Answer: Its inhibition at 0.1 µM is 93%.

Question: How did the inhibition at 0.1 µM turn out when `COc1cc(C(=O)N2Cc3ccc(C(=O)N(C)CCc4ccccn4)n3Cc3ccccc32)ccc1-n1c(C)ccc1C` [Example 144, 10-[4-(2,5-Dimethyl-1H-pyrrol-1-yl)-3-methoxybenzoyl]-N-methyl-N-[2-(pyridin-2-yl)ethyl]-10,11-dihydro-5H-pyrrolo[2,1-c][1,4]benzodiazepine-3-carboxamide] was run?
Answer: The inhibition at 0.1 µM was 57%.

Question: How did the inhibition at 0.1 µM turn out when `COc1cc(C(=O)N2Cc3ccc(C(=O)N4CCN(c5ccccn5)CC4)n3Cc3ccccc32)ccc1-n1c(C)ccc1C` [Example 145, {10-[4-(2,5-Dimethyl-1H-pyrrol-1-yl)-3-methoxybenzoyl]-10,11-dihydro-5H-pyrrolo[2,1-c][1,4]benzodiazepin-3-yl}[4-(pyridin-2-yl)-1-piperazinyl]methanone] was run?
Answer: The inhibition at 0.1 µM was 22%.

Question: `COc1cc(C(=O)N2Cc3ccc(C(=O)N4CCN(c5ccncc5)CC4)n3Cc3ccccc32)ccc1-n1c(C)ccc1C` [Example 146, {10-[4-(2,5-Dimethyl-1H-pyrrol-1-yl)-3-methoxybenzoyl]-10,11-dihydro-5H-pyrrolo[2,1-c][1,4]benzodiazepin-3-yl}[4-(pyridin-4-yl)-1-piperazinyl]methanone] was tested. Which inhibition at 0.1 µM did it give?
Answer: The inhibition at 0.1 µM was 38%.

Question: How did the inhibition at 0.1 µM turn out when `COc1cc(C(=O)N2Cc3ccc(C(=O)N(C)CCc4ccncc4)n3Cc3ccccc32)ccc1-n1c(C)ccc1C` [Example 147, 10-[4-(2,5-Dimethyl-1H-pyrrol-1-yl)-3-methoxybenzoyl]-N-methyl-N-[2-(pyridin-4-yl)ethyl]-10,11-dihydro-5H-pyrrolo[2,1-c][1,4]benzodiazepine-3-carboxamide] was run?
Answer: The inhibition at 0.1 µM was 64%.
